The test system of assay [1] is cancer cell line KM12C, in which RON is activated. Briefly: Cell growth inhibitory ability in RON-activated cancer cell line (MTS). The assay is classed as cell-based. To be noted: Homo sapiens, 48 hours, absorbance 490 nm. How it is done: Experimental Example 2: Identification of Cell Growth Inhibitory Ability of Example Compounds in RON-Activated Cancer Cell Line
The cancer cell line KM12C (80015, KCLB, MEM+1K° FBS), in which RON is activated, was treated with each of the example compounds at a concentration of 10 μM, and then reaction was allowed to proceed for 48 hours. 24 hours after completion of the reaction, 20 μl of MTS solution (CellTiter 96 Aqueous One Solution Cell Proliferation Assay, product number: G3581, Promega) was added to each well, and then incubation was performed at a temperature of 37° C. in 50 CO2 incubator for 4 hours. Then, an IC50 value of the compound was derived by measuring its absorbance value at a wavelength of 490 nm using a Victor X5 plate reader. Here, as a positive control, N-(4-(2-amino-3-chloropyridin-4-yloxy)-3-fluorophenyl)-4-ethoxy-1-(4-fluorophenyl)-2-oxo-1,2-dihydropyridine-3-carboxamide, which is the compound of Example 1 in WO 2008/058229 A1, was used.

Assay [2] shares this test system. Briefly: Cell-killing efficacy in RON-activated cancer cell line (trypan blue). To be noted: Homo sapiens, 48 hours, trypan blue, n=2, read-out: Cell death (%) Cancer cell line KM12C. The assay is classed as cell-based. How it is done: Experimental Example 3: Measurement of Cell-Killing Efficacy of Example Compounds in RON-Activated Cancer Cell Line
The cancer cell line KM12C (80015, KCLB, MEM+10% FBS), in which RON is activated, was dispensed into each 60 mm^2 dish at 1×10^5 cells. After 24 hours, the dish was treated with each of the example compounds at a concentration of 1 μM or 5 μM while performing medium exchange, and then reaction was allowed to proceed for 48 hours. After 48 hours, centrifugation was performed for 4 minutes at 1,500 rpm to collect cells and cell fluid. Thereafter, living cells and dead cells were quantified (n=2) using a trypan blue solution (15250-061, Gibco), and statistical analysis was performed using Excel-T-test. Here, as a negative control, only a solvent (0.100 DMSO) was used; and as a positive control, N-(4-(2-amino-3-chloropyridin-4-yloxy)-3-fluorophenyl)-4-ethoxy-1-(4-fluorophenyl)-2-oxo-1,2-dihydropyridine-3-carboxamide, which is the compound of Example 1 in WO 2008/058229 A1, was used.

What is called IC50 is the concentration needed to halve the response being measured. Low values mean inhibition by little substance, high ones a need for much substance. Regarding `O=C(Nc1ccc(Oc2ccnc3cc(-c4ccc(CN5CCC(F)(F)CC5)cn4)sc23)c(F)c1)c1c2c(cn(-c3ccc(F)cc3)c1=O)CCO2` [Example 35, N-(4-((2-(5-((4,4-Difluoropiperidin-1-yl)methyl)pyridin-2-yl)thieno[3,2-b]pyridine-7-yl)oxy)-3-fluorophenyl)-5-(4-fluorophenyl)-6-oxo-2,3,5,6-tetrahydrofuro[3,2-c]pyridine-7-carboxamide], in assay [1], the IC50 worked out at 4 nM. Moreover, in assay [2], the cytotoxicity at 1 µM worked out at 19.6% and the cytotoxicity at 5 µM was found to be 28.1%.

Molecule `COc1cc2c(Oc3ccc(NC(=O)c4c5c(cn(-c6ccc(F)cc6)c4=O)CCO5)cc3F)ccnc2cc1OCCCN1CCC(F)(F)C1` [Example 95, N-(4-((7-(3-(3,3-Difluoropyrrolidin-1-yl)propoxy)-6-methoxyquinolin-4-yl)oxy)-3-fluorophenyl)-5-(4-fluorophenyl)-6-oxo-2,3,5,6-tetrahydrofuro[3,2-c]pyridine-7-carboxamide] registered an IC50 in assay [1] of 5 nM. Besides, in assay [2], the cytotoxicity at 1 µM came to 19.6% and the cytotoxicity at 5 µM was found to be 25.6%.

The molecule `COc1cc2c(Oc3ccc(NC(=O)c4c5c(cn(-c6ccc(F)cc6)c4=O)CCO5)cc3F)ccnc2cc1OCCCN1CCS(=O)(=O)CC1` [Example 102, N-(4-((7-(3-(1,1-Dioxidothiomorpholino)propoxy)-6-methoxyquinolin-4-yl)oxy)-3-fluorophenyl)-5-(4-fluorophenyl)-6-oxo-2,3,5,6-tetrahydrofuro[3,2-c]pyridine-7-carboxamide] came in with a half-maximal inhibitory concentration (IC50) in assay [1] of 1 nM. For the same molecule, in assay [2], the cytotoxicity at 1 µM amounted to 23.4% and the cytotoxicity at 5 µM amounted to 29.7%.

With `N#CC1CN(Cc2ccc(-c3cc4nccc(Oc5ccc(NC(=O)c6c7c(cn(-c8ccc(F)cc8)c6=O)CCO7)cc5F)c4s3)nc2)C1` [Example 19, N-(4-((2-(5-((3-Cyanoazetidin-1-yl)methyl)pyridin-2-yl)thieno[3,2-b]pyridin-7-yl)oxy)-3-fluorophenyl)-5-(4-fluorophenyl)-6-oxo-2,3,5,6-tetrahydrofuro[3,2-c]pyridine-7-carboxamide], half-maximal inhibition in assay [1] (IC50) was put at 1 nM. Moreover, in assay [2], the cytotoxicity at 1 µM stood at 15.7% and the cytotoxicity at 5 µM is 21.9%.

In turn, `O=C(Nc1ccc(Oc2ccnc3cc(-c4ccc(CN5CCC(F)(F)C5)cn4)sc23)c(F)c1)c1c2c(cn(-c3ccc(F)cc3)c1=O)CCO2` [Example 28, N-(4-((2-(5-((3,3-Difluoropyrrolidin-1-yl)methyl)pyridin-2-yl)thieno[3,2-b]pyridine-7-yl)oxy)-3-fluorophenyl)-5-(4-fluorophenyl)-6-oxo-2,3,5,6-tetrahydrofuro[3,2-c]pyridine-7-carboxamide] gave an IC50 in assay [1] of 3 nM. In assay [2], the cytotoxicity at 1 µM is 9.6% and the cytotoxicity at 5 µM came out at 10.3%.

In turn, `O=C(Nc1ccc(Oc2ccnc3cc(-c4ccc(CN5CCC(F)C5)cn4)sc23)c(F)c1)c1c2c(cn(-c3ccc(F)cc3)c1=O)CCO2` (stereo not drawn) [Example 27, N-(3-Fluoro-4-((2-(5-((3-fluoropyrrolidin-1-yl)methyl)pyridin-2-yl)thieno[3,2-b]pyridin-7-yl)oxy)phenyl)-5-(4-fluorophenyl)-6-oxo-2,3,5,6-tetrahydrofuro[3,2-c]pyridine-7-carboxamide] returned a half-inhibitory concentration (IC50) in assay [1] of 2 nM. In assay [2], the cytotoxicity at 1 µM was found to be 17.3% and the cytotoxicity at 5 µM worked out at 29%.

In assay [1], `COc1cc2c(Oc3ccc(NC(=O)c4c5c(cn(-c6ccc(F)cc6)c4=O)CCO5)cc3F)ccnc2cc1OCCCN1CCC(C)(O)C1` (stereo not drawn) [Example 91, N-(3-Fluoro-4-((7-(3-(3-hydroxy-3-methylpyrrolidin-1-yl)propoxy)-6-methoxyquinoline-4-yl)oxy)phenyl)-5-(4-fluorophenyl)-6-oxo-2,3,5,6-tetrahydrofuro[3,2-c]pyridine-7-carboxamide] had a 50% inhibitory concentration (IC50) of 50 nM. Moreover, in assay [2], the cytotoxicity at 1 µM was found to be 12.7% and the cytotoxicity at 5 µM stood at 14.3%.

`O=C(Nc1ccc(Oc2ccnc3cc(-c4ccc(CN5CCCC(O)C5)cn4)sc23)c(F)c1)c1c2c(cn(-c3ccc(F)cc3)c1=O)CCO2` (stereo not drawn) [Example 30, N-(3-Fluoro-4-((2-(5-((3-hydroxypiperidin-1-yl)methyl)pyridin-2-yl)thieno[3,2-b]pyridin-7-yl)oxy)phenyl)-5-(4-fluorophenyl)-6-oxo-2,3,5,6-tetrahydrofuro[3,2-c]pyridine-7-carboxamide]: in assay [1], the IC50 is 1 nM. Further, in assay [2], the cytotoxicity at 1 µM worked out at 24.8% and the cytotoxicity at 5 µM was 25.9%.

In turn, `COC1CCCN(Cc2ccc(-c3cc4nccc(Oc5ccc(NC(=O)c6c7c(cn(-c8ccc(F)cc8)c6=O)CCO7)cc5F)c4s3)nc2)C1` (stereo not drawn) [Example 32, N-(3-Fluoro-4-((2-(5-((3-methoxypiperidin-1-yl)methyl)pyridin-2-yl)thieno[3,2-b]pyridin-7-yl)oxy)phenyl)-5-(4-fluorophenyl)-6-oxo-2,3,5,6-tetrahydrofuro[3,2-c]pyridine-7-carboxamide] displayed a half-inhibitory concentration (IC50) in assay [1] of 6 nM. In assay [2], the cytotoxicity at 1 µM worked out at 13.5% and the cytotoxicity at 5 µM was determined as 20.4%.

The molecule `COC1(C)CN(Cc2ccc(-c3cc4nccc(Oc5ccc(NC(=O)c6c7c(cn(-c8ccc(F)cc8)c6=O)CCO7)cc5F)c4s3)nc2)C1` [Example 16, N-(3-Fluoro-4-((2-(5-((3-methoxy-3-methylazetidin-1-yl)methyl)pyridin-2-yl)thieno[3,2-b]pyridin-7-yl)oxy)phenyl)-5-(4-fluorophenyl)-6-oxo-2,3,5,6-tetrahydrofuro[3,2-c]pyridine-7-carboxamide] showed a 50% inhibitory concentration (IC50) in assay [1] of 1 nM. In addition, in assay [2], the cytotoxicity at 1 µM is 20.4% and the cytotoxicity at 5 µM stood at 24.2%.

With `O=C(Nc1ccc(Oc2ccnc3cc(-c4ccc(CN5CCC(O)CC5)cn4)sc23)c(F)c1)c1c2c(cn(-c3ccc(F)cc3)c1=O)CCO2` [Example 29, N-(3-Fluoro-4-((2-(5-((4-hydroxypiperidin-1-yl)methyl)pyridin-2-yl)thieno[3,2-b]pyridin-7-yl)oxy)phenyl)-5-(4-fluorophenyl)-6-oxo-2,3,5,6-tetrahydrofuro[3,2-c]pyridine-7-carboxamide], in assay [1], 1 nM corresponded to half-maximal inhibition (IC50). In assay [2], the cytotoxicity at 1 µM is 22.6% and the cytotoxicity at 5 µM turned out to be 24.5%.

For the molecule `COC1CN(Cc2ccc(-c3cc4nccc(Oc5ccc(NC(=O)c6c7c(cn(-c8ccc(F)cc8)c6=O)CCO7)cc5F)c4s3)nc2)C1` [Example 14, N-(3-Fluoro-4-((2-(5-((3-methoxyazetidin-1-yl)methyl)pyridin-2-yl)thieno[3,2-b]pyridin-7-yl)oxy)phenyl)-5-(4-fluorophenyl)-6-oxo-2,3,5,6-tetrahydrofuro[3,2-c]pyridine-7-carboxamide], the IC50 in assay [1] came to 2 nM. Moreover, in assay [2], the cytotoxicity at 1 µM worked out at 13.6% and the cytotoxicity at 5 µM worked out at 21.5%.

For `COC1CCN(Cc2ccc(-c3cc4nccc(Oc5ccc(NC(=O)c6c7c(cn(-c8ccc(F)cc8)c6=O)CCO7)cc5F)c4s3)nc2)C1` (stereo not drawn) [Example 25, N-(3-Fluoro-4-((2-(5-((3-methoxypyrrolidin-1-yl)methyl)pyridin-2-yl)thieno[3,2-b]pyridin-7-yl)oxy)phenyl)-5-(4-fluorophenyl)-6-oxo-2,3,5,6-tetrahydrofuro[3,2-c]pyridine-7-carboxamide], in assay [1], the midpoint of inhibition, the IC50, lay at 1 nM. Further, in assay [2], the cytotoxicity at 1 µM is 17.5% and the cytotoxicity at 5 µM was 21%.

(Values after patent US20220235064A1 (WELLMARKER BIO CO., LTD., priority 2019, published 2022).)
